# Measured values from patent US11834453B2, “Substituted pyrimido[5,4-d]pyrimidines as HER2 inhibitors” (Array BioPharma Inc., priority 2020, dated 2023).
# Like-named read-outs stand apart in the source and are kept apart here.
# Columns and labels:
# [1] = target: ErbB2 insYVMA (HER2-YVMA, SEQ ID NO: 2) (Homo sapiens, UniProt P04626, INS775YVMA/P1170A); assay: biochemical; conditions: ErbB2 insYVMA enzyme assay
# ErbB2 WT = ErbB2 WT (Homo sapiens (Human), UniProt P04626); assay: ErbB enzyme assay (CisBio HTRF KinEASE-TK), Assay 2; format: biochemical
# Procedure: Compound potencies were determined using CisBio's HTRF Kinease-TK assay technology. The kinases were incubated with 250 nM TK-substrate biotin (CisBio, part of cat #62TK0PEC) at 1 mM ATP along with test compounds in a buffer consisting of 25 mM HEPES, pH 7.4, 10 mM MgCl2, 0.01% Triton X-100, and 2% DMSO in a volume of 8 μL. […] After 30-minute incubation at 22° C., the reaction was quenched by adding 8 μL of quench solution containing 62.5 nM Sa-XL665 and 0.25× TK-Ab-Cryptate in HTRF detection buffer (all from CisBio, part of cat #62TK0PEC). After a 1-hour incubation at 22° C., the extent of reaction was determined using a PerkinElmer EnVision multimode plate reader via HTRF dual wavelength detection, and the percent of control (POC) was calculated using a ratiometric emission factor. One hundred POC was determined using DMSO only samples (no compound present), and 0 POC was determined using pre-quenched control reactions.
# (§1) Enzyme lots and concentration used are in Table 2.
# EGFR = EGFR (Homo sapiens (Human), UniProt P00533); assay: ErbB enzyme assay (CisBio HTRF KinEASE-TK), Assay 3; format: biochemical
# Procedure: Compound potencies were determined using CisBio's HTRF Kinease-TK assay technology. The kinases were incubated with 250 nM TK-substrate biotin (CisBio, part of cat #62TK0PEC) at 1 mM ATP along with test compounds in a buffer consisting of 25 mM HEPES, pH 7.4, 10 mM MgCl2, 0.01% Triton X-100, and 2% DMSO in a volume of 8 μL. Compounds were prepared as a three-fold serial dilution in DMSO and added to the assay to give the appropriate final concentration. After 30-minute incubation at 22° C., the reaction was quenched by adding 8 μL of quench solution containing 62.5 nM Sa-XL665 and 0.25× TK-Ab-Cryptate in HTRF detection buffer (all from CisBio, part of cat #62TK0PEC). After a 1-hour incubation at 22° C., the extent of reaction was determined using a PerkinElmer EnVision multimode plate reader via HTRF dual wavelength detection, and the percent of control (POC) was calculated using a ratiometric emission factor. One hundred POC was determined using DMSO only samples (no compound present), and 0 POC was determined using pre-quenched control reactions. A 4-parameter logistic curve was fit to the POC values as a function of the concentration of compound, and the IC50 value was the point where the best-fit curve crossed 50 POC.
# as §1
# [2] = target: ErbB2 with Exon 20 YVMA insertion (HER2-YVMA) (Homo sapiens (Human), UniProt P04626, INS775YVMA); assay: Cellular phosphorylation assay, constitutive ErbB2 phosphorylation (Y1196) in engineered NIH 3T3 cells, Assay 4; format: cell-based
# Procedure: Serially diluted compounds were added to the plates for 1 hour at 37° C./5% CO2. EGFR WT cells were stimulated with 100 ng/ml rEGF for an additional 10 minutes at 37° C./5% CO2. After compound incubation, medium was removed from the cells, which were then fixed in 3.7% formaldehyde in PBS at room temperature for 20 minutes. Following a wash with PBS, cells were permeabilized with 100% methanol at room temperature for 10 minutes. Cells were then washed with PBS/0.05% Tween-20 and blocked with Odyssey blocking buffer (LI-COR Biosciences) for at least 1 hour at room temperature. Antibodies to phosphorylated ErbB2 (Y1196, Cell Signaling #6942) or phosphorylated EGFR (Y1068, Cell Signaling #3777) and GAPDH (Millipore #MAB374) were added to the cells in blocking buffer containing 0.05% azide and incubated overnight at 4° C. After washing with PBS/0.05° i° Tween-20, the cells were incubated with fluorescently labeled secondary anti-rabbit antibody (LiCOR, IRDye 800CW #926-32211) and anti-mouse antibody (Molecular Probes, Alexa Fluor 680 #A21058) for 1 hour at room temperature in the dark. Cells were then washed and analyzed for fluorescence at both wavelengths using the Odyssey Infrared Imaging System (LI-COR Biosciences). Phosphorylated ErbB2 and EGFR signal was normalized to GAPDH signal to generate curves and calculate IC50 values.
# Chain of ErbB2 insYVMA (HER2-YVMA, SEQ ID NO: 2) (P04626 with tags, fused parts or gaps INS775YVMA/P1170A limits assumed): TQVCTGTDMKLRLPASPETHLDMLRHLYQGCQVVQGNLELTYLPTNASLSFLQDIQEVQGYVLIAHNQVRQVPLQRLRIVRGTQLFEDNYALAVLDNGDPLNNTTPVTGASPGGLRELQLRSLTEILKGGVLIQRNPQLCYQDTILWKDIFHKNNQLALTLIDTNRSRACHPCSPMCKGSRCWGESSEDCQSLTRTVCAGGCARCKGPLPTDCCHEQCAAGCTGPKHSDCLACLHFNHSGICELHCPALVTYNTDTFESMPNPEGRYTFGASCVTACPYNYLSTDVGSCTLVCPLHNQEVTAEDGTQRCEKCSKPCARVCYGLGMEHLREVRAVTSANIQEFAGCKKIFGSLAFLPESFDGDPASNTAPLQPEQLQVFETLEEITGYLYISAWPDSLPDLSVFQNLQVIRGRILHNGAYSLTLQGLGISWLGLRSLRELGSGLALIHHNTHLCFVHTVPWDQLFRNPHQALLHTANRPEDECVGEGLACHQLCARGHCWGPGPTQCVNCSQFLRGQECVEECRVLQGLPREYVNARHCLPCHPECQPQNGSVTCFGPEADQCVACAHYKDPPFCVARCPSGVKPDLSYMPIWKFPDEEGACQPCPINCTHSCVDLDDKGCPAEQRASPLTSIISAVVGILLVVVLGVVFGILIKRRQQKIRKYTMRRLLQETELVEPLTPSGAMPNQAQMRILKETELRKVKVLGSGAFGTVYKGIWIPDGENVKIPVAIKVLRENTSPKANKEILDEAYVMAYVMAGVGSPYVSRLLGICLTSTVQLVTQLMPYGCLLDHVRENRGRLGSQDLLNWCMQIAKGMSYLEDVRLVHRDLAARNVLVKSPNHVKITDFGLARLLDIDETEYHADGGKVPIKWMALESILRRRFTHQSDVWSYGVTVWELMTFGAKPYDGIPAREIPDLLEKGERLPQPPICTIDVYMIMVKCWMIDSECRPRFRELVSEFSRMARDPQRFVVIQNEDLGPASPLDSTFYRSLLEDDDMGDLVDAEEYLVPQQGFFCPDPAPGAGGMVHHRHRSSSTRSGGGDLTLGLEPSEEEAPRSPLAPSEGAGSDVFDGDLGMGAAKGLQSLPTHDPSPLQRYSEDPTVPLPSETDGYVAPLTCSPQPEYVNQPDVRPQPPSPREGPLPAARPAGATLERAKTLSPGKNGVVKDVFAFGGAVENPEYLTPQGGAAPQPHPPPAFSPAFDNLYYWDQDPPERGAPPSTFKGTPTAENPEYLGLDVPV
# Chain of ErbB2 WT (P04626 23-1255): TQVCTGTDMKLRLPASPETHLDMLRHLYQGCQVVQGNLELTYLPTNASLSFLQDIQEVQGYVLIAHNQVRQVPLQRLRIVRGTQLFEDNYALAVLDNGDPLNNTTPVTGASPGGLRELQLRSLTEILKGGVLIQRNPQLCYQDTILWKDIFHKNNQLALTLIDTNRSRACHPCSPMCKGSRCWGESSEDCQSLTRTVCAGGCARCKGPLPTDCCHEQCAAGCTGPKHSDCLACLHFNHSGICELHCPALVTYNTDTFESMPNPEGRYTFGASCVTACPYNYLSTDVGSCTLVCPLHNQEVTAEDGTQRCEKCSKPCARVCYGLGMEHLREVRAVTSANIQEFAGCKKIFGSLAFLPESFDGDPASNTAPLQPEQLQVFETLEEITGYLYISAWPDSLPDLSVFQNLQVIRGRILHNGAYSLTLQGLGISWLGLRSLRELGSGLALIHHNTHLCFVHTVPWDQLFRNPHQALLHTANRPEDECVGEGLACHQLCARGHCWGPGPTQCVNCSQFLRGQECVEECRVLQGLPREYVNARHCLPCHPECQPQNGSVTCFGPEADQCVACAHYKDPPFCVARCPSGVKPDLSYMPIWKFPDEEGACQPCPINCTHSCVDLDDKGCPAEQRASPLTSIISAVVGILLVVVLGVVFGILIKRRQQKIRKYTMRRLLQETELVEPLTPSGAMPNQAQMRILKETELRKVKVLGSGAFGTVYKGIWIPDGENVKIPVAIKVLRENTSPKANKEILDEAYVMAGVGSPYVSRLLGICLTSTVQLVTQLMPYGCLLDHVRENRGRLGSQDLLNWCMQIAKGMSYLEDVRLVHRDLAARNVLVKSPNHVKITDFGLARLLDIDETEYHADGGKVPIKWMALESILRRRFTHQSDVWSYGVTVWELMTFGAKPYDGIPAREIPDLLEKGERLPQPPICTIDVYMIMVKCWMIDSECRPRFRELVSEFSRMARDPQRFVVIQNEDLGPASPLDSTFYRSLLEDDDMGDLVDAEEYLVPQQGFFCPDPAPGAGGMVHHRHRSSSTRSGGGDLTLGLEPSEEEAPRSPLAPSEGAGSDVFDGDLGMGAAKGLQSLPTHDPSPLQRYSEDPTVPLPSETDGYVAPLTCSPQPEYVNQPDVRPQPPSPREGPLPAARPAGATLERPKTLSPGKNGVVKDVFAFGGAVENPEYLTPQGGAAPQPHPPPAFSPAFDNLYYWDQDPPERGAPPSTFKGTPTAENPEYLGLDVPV
# Chain of ErbB2 with Exon 20 YVMA insertion (HER2-YVMA) (P04626 other isoform, or with tags, fused parts or gaps ins YVMA behind 775): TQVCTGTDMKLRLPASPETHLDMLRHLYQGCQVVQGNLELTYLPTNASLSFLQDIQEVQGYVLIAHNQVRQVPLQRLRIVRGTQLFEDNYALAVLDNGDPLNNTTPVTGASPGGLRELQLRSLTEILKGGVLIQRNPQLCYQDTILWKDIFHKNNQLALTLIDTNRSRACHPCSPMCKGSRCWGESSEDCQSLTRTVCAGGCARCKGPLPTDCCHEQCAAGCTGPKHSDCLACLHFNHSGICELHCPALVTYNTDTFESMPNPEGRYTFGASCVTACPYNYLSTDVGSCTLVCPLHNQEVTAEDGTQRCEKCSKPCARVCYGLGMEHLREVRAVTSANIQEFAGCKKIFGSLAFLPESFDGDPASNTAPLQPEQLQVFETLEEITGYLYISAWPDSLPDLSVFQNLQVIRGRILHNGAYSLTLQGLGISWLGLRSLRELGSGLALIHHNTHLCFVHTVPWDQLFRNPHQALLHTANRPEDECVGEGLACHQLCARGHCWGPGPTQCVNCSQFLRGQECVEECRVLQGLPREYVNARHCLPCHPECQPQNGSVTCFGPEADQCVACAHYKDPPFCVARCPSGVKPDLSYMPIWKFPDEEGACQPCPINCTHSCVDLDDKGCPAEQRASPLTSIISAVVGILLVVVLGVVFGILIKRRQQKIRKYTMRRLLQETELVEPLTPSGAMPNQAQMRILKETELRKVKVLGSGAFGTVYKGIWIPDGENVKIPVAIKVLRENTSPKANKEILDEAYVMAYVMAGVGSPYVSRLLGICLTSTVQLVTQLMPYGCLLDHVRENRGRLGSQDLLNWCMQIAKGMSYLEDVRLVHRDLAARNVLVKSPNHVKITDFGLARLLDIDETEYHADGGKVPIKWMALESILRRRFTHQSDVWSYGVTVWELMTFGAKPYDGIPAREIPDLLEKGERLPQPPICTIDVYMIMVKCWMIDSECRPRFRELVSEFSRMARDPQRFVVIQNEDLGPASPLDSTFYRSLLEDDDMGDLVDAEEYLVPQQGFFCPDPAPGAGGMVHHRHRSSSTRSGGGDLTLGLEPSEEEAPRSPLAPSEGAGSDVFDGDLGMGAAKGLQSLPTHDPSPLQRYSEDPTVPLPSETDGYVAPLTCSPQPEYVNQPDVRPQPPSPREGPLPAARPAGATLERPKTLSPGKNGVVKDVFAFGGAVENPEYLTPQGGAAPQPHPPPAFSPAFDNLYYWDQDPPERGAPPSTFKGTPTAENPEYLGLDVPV
# Chain of EGFR (P00533 25-1210): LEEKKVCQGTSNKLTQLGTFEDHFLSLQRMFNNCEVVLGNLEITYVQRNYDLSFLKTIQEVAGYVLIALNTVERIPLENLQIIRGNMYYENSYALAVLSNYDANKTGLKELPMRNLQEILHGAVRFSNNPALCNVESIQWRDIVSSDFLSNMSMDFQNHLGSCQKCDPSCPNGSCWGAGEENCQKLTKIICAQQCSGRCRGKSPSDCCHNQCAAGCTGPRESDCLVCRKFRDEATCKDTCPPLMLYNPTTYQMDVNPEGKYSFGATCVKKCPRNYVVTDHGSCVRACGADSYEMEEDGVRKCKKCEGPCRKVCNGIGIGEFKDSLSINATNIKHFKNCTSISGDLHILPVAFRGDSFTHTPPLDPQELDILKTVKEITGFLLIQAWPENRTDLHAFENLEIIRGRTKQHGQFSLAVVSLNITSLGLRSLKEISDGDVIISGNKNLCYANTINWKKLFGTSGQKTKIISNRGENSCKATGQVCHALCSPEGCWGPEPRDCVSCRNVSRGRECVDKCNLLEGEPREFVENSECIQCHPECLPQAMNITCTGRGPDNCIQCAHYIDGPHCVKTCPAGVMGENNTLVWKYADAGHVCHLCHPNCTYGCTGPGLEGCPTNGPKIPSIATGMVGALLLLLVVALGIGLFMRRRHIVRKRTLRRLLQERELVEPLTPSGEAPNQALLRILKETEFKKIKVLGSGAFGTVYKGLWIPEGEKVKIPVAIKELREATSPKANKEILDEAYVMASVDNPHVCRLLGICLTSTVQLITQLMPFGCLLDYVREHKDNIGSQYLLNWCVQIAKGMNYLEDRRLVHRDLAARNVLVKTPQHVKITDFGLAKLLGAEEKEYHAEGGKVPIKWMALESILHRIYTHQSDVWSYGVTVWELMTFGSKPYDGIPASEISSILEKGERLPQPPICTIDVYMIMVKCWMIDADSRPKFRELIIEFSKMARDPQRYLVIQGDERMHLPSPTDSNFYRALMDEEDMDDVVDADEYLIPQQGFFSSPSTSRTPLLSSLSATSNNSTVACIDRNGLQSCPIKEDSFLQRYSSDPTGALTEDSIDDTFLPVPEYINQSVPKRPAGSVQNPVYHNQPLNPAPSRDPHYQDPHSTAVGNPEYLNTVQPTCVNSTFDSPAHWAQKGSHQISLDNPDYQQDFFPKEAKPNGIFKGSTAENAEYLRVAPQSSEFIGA
smiles,measurement,setting,value
"Cc1cc(Nc2ncnc3cnc(N4CC5(CCOC5)C4)nc23)ccc1Oc1ccc2c(c1)ncn2C [Example 21, N-(3-methyl-4-((1-methyl-1H-benzo[d]imidazol-5-yl)oxy)phenyl)-6-(6-oxa-2-azaspiro[3.4]octan-2-yl)pyrimido[5,4-d]pyrimidin-4-amine]",IC50,[1]; read-out: Assay 1 IC50,33.7 nM
same,IC50,ErbB2 WT,98.4 nM
same,IC50,EGFR,1 µM
same,IC50,[2],82.7 nM
Cc1cc(Nc2ncnc3cnc(N4CCCCS4(=O)=O)nc23)ccc1Oc1ccc2c(c1)ncn2C [Example 437],IC50,[1]; read-out: Assay 1 IC50,40.8 nM
same,IC50,ErbB2 WT,146 nM
same,IC50,EGFR,≥ 10 µM
same,IC50,[2],95.8 nM
"Cc1cc(Nc2ncnc3cnc(N4CCCC(OC(F)F)C4)nc23)ccc1Oc1ccc2c(c1)ncn2C (racemic) [Example 40, 6-(3-(difluoromethoxy)piperidin-1-yl)-N-(3-methyl-4-((1-methyl-1H-benzo[d]imidazol-5-yl)oxy)phenyl)pyrimido[5,4-d]pyrimidin-4-amine]",IC50,[1]; read-out: Assay 1 IC50,71.5 nM
same,IC50,ErbB2 WT,145 nM
same,IC50,EGFR,≥ 10 µM
same,IC50,[2],91.5 nM
"CC(=O)N1C2CC1CN(c1ncc3ncnc(Nc4ccc(Oc5ccc6c(c5)ncn6C)c(C)c4)c3n1)C2 [Example 89, 1-(3-(8-((3-methyl-4-((1-methyl-1H-benzo[d]imidazol-5-yl)oxy)phenyl)amino)pyrimido[5,4-d]pyrimidin-2-yl)-3,6-diazabicyclo[3.1.1]heptan-6-yl)ethan-1-one]",IC50,[1]; read-out: Assay 1 IC50,68.1 nM
same,IC50,ErbB2 WT,285 nM
same,IC50,EGFR,≥ 10 µM
same,IC50,[2],187 nM
Cc1cc(Nc2ncnc3cnc(N4CC5CC5(C)C4)nc23)ccc1Oc1ccc2c(c1)ncn2C (stereo not drawn) [Example 225],IC50,[1]; read-out: Assay 1 IC50,149 nM
same,IC50,ErbB2 WT,218 nM
same,IC50,EGFR,≥ 10 µM
same,IC50,[2],85.4 nM
"CCn1cnc2cc(Oc3ccc(Nc4ncnc5cnc(N6CCOCC6)nc45)cc3C)ccc21 [Example 75, N-(4-((1-ethyl-1H-benzo[d]imidazol-5-yl)oxy)-3-methylphenyl)-6-morpholinopyrimido[5,4-d]pyrimidin-4-amine 2,2,2-trifluoroacetate]",IC50,[1]; Assay 1 IC50 (nM),51.8 nM
same,IC50,ErbB2 WT,141 nM
same,IC50,EGFR,≥ 10 µM
same,IC50,[2],23.9 nM
"Cc1cc(Nc2ncnc3cnc(NC4CCC4(F)F)nc23)ccc1Oc1ccc2c(c1)ncn2C (stereo not drawn) [Example 52, N2-(2,2-difluorocyclobutyl)-N8-(3-methyl-4-((1-methyl-1H-benzo[d]imidazol-5-yl)oxy)phenyl)pyrimido[5,4-d]pyrimidine-2,8-diamine]",IC50,[1]; read-out: Assay 1 IC50,100 nM
same,IC50,ErbB2 WT,317 nM
same,IC50,EGFR,≥ 10 µM
same,IC50,[2],160 nM
Cc1cc(Nc2ncnc3cnc(N4C5COCC4C5)nc23)ccc1Oc1ccc2c(c1)ncn2C [Example 255],IC50,[1]; read-out: Assay 1 IC50,113 nM
same,IC50,ErbB2 WT,434 nM
same,IC50,EGFR,≥ 10 µM
same,IC50,[2],160 nM
Cc1cc(Nc2ncnc3cnc(N4CCC(F)(F)CC4)nc23)ccc1Oc1ccc2c(c1)ncn2C [Example 236],IC50,[1]; read-out: Assay 1 IC50,149 nM
same,IC50,ErbB2 WT,352 nM
same,IC50,EGFR,≥ 10 µM
same,IC50,[2],89.9 nM
Cc1cc(Nc2ncnc3cnc(N4CC(OC(F)F)C4)nc23)ccc1Oc1ccc2c(c1)ncn2C [Example 244],IC50,[1]; read-out: Assay 1 IC50,41.9 nM
same,IC50,ErbB2 WT,107 nM
same,IC50,EGFR,≥ 10 µM
same,IC50,[2],92.2 nM
"COCCOc1ncc2ncnc(Nc3ccc(Oc4ccc5c(c4)ncn5C)c(C)c3)c2n1 [Example 76, 6-(2-methoxyethoxy)-N-(3-methyl-4-((1-methyl-1H-benzo[d]imidazol-5-yl)oxy)phenyl)pyrimido[5,4-d]pyrimidin-4-amine 2,2,2-trifluoroacetate]",IC50,[1]; Assay 1 IC50 (nM),337 nM
same,IC50,ErbB2 WT,2340 nM
same,IC50,EGFR,≥ 10 µM
same,IC50,[2],1300 nM
Cc1cc(Nc2ncnc3cnc(N4CC[C@H]4C(F)F)nc23)ccc1Oc1ccc2c(c1)ncn2C [Example 388],IC50,[1]; read-out: Assay 1 IC50,62.1 nM
same,IC50,ErbB2 WT,89.4 nM
same,IC50,EGFR,≥ 10 µM
same,IC50,[2],52.2 nM
CO[C@@H]1CCCN(c2ncc3ncnc(Nc4ccc(Oc5ccc6c(c5)ncn6C)c(C)c4)c3n2)C1 [Example 227],IC50,[1]; read-out: Assay 1 IC50,47.4 nM
same,IC50,ErbB2 WT,66.9 nM
same,IC50,EGFR,≥ 10 µM
same,IC50,[2],53.8 nM
"Cc1cc(Nc2ncnc3cnc(N[C@H](C)COC(F)(F)F)nc23)ccc1Oc1ccc2c(c1)ncn2C [Example 64, (R)—N8-(3-methyl-4-((1-methyl-1H-benzo[d]imidazol-5-yl)oxy)phenyl)-N2-(1-(trifluoromethoxy)propan-2-yl)pyrimido[5,4-d]pyrimidine-2,8-diamine]",IC50,[1]; read-out: Assay 1 IC50,157 nM
same,IC50,ErbB2 WT,1300 nM
same,IC50,EGFR,≥ 10 µM
same,IC50,[2],324 nM
Cc1cc(Nc2ncnc3cnc(O[C@@H]4CNC[C@@H]4F)nc23)ccc1Oc1ccc2c(c1)ncn2C [Example 283],IC50,[1]; read-out: Assay 1 IC50,39.5 nM
same,IC50,ErbB2 WT,301 nM
same,IC50,EGFR,≥ 10 µM
same,IC50,[2],261 nM
Cc1cc(Nc2ncnc3cnc(OCC(C)(C)O)nc23)ccc1Oc1ccc2c(c1)ncn2C [Example 476],IC50,[1]; read-out: Assay 1 IC50,39.5 nM
same,IC50,ErbB2 WT,232 nM
same,IC50,EGFR,≥ 10 µM
same,IC50,[2],155 nM
COC1CC2(C1)CN(c1ncc3ncnc(Nc4ccc(Oc5ccc6c(c5)ncn6C)c(C)c4)c3n1)C2 [Example 237],IC50,[1]; read-out: Assay 1 IC50,32 nM
same,IC50,ErbB2 WT,70.2 nM
same,IC50,EGFR,≥ 10 µM
same,IC50,[2],71.6 nM
"CC(=O)N1CC2CC(C1)N2c1ncc2ncnc(Nc3ccc(Oc4ccc5c(c4)ncn5C)c(C)c3)c2n1 [Example 23, 1-(6-(8-((3-methyl-4-((1-methyl-1H-benzo[d]imidazol-5-yl)oxy)phenyl)amino)pyrimido[5,4-d]pyrimidin-2-yl)-3,6-diazabicyclo[3.1.1]heptan-3-yl)ethan-1-one]",IC50,[1]; read-out: Assay 1 IC50,313 nM
same,IC50,ErbB2 WT,1340 nM
same,IC50,EGFR,≥ 10 µM
same,IC50,[2],717 nM
Cc1cc(Nc2ncnc3cnc(N4CCC5(COC5)C4)nc23)ccc1Oc1ccc2c(c1)ncn2C [Example 422],IC50,[1]; read-out: Assay 1 IC50,58.4 nM
same,IC50,ErbB2 WT,93.2 nM
same,IC50,EGFR,≥ 10 µM
same,IC50,[2],96.7 nM
Cc1cc(Nc2ncnc3cnc(N4CCOC[C@@H]4C)nc23)ccc1Oc1ccc2c(c1)ncn2C [Example 258],IC50,[1]; read-out: Assay 1 IC50,88.3 nM
same,IC50,ErbB2 WT,177 nM
same,IC50,EGFR,≥ 10 µM
same,IC50,[2],51.4 nM
"Cn1cnc2cc(Oc3ccc(Nc4ncnc5cnc(N6CCOCC6)nc45)cc3Cl)ccc21 [Example 81, N-(3-chloro-4-((1-methyl-1H-benzo[d]imidazol-5-yl)oxy)phenyl)-6-morpholinopyrimido[5,4-d]pyrimidin-4-amine 2,2,2-trifluoroacetate]",IC50,[1]; Assay 1 IC50 (nM),153 nM
same,IC50,ErbB2 WT,847 nM
same,IC50,EGFR,≥ 10 µM
same,IC50,[2],77.1 nM
Cc1cc(Nc2ncnc3cnc(N4CC[Si](C)(C)CC4)nc23)ccc1Oc1ccc2c(c1)ncn2C [Example 474],IC50,[1]; Assay 1 IC50 (nM),254 nM
same,IC50,ErbB2 WT,727 nM
same,IC50,EGFR,≥ 10 µM
same,IC50,[2],559 nM
Cc1cc(Nc2ncnc3cnc(N4CC(COC(F)F)C4)nc23)ccc1Oc1ccc2c(c1)ncn2C [Example 245],IC50,[1]; read-out: Assay 1 IC50,50.4 nM
same,IC50,ErbB2 WT,142 nM
same,IC50,EGFR,≥ 10 µM
same,IC50,[2],109 nM
"COC1CN(c2ncc3ncnc(Nc4ccc(Oc5ccc6c(c5)ncn6C)c(C)c4)c3n2)C1 [Example 43, 6-(3-methoxyazetidin-1-yl)-N-(3-methyl-4-((1-methyl-1H-benzo[d]imidazol-5-yl)oxy)phenyl)pyrimido[5,4-d]pyrimidin-4-amine]",IC50,[1]; read-out: Assay 1 IC50,28.8 nM
same,IC50,ErbB2 WT,59.8 nM
same,IC50,EGFR,≥ 10 µM
same,IC50,[2],92.1 nM
